Laboratory results as given in ChEMBL document CHEMBL1201862, “PubChem BioAssay data set” (2004).
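Five concentrations, 48 hours, 96-well plates. GI50 is the concentration that inhibits growth by half.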 Active and inactive are the calls of the source. No stated cut-off is given here; in the data, active = GI50 up to about 1.1 µM and inactive = higher.

Columns and labels:
Assay in all cases: growth of human tumour cells (NCI), 48 h
UACC-257 = tested on: UACC-257
HCT-15 = tested on: HCT-15
PC-3 = tested on: PC-3
UO-31 = tested on: UO-31
SN12C = tested on: SN12C
LOX IMVI = tested on: LOX IMVI
Malme-3M = tested on: Malme-3M
Hs-578T = tested on: Hs-578T
RPMI-8226 = tested on: RPMI-8226
IGROV-1 = tested on: IGROV-1
NCI/ADR-RES = tested on: NCI/ADR-RES
OVCAR-4 = tested on: OVCAR-4
SR = tested on: SR
SF-295 = tested on: SF-295
DU-145 = tested on: DU-145
SF-539 = tested on: SF-539
COLO 205 = tested on: COLO 205
CCRF-CEM = tested on: CCRF-CEM
SK-MEL-2 = tested on: SK-MEL-2
SNB-75 = tested on: SNB-75
SNB-19 = tested on: SNB-19
MDA-MB-231 = tested on: MDA-MB-231
A498 = tested on: A498
SW-620 = tested on: SW-620
HCT-116 = tested on: HCT-116
NCI-H23 = tested on: NCI-H23
HT-29 = tested on: HT-29
MDA-MB-435 = tested on: MDA-MB-435
SF-268 = tested on: SF-268
OVCAR-8 = tested on: OVCAR-8
NCI-H522 = tested on: NCI-H522
BT-549 = tested on: BT-549
CAKI-1 = tested on: CAKI-1
NCI-H226 = tested on: NCI-H226
EKVX = tested on: EKVX
HCC 2998 = tested on: HCC 2998
KM12 = tested on: KM12
786-0 = tested on: 786-0
NCI-H460 = tested on: NCI-H460
UACC-62 = tested on: UACC-62
K562 = tested on: K562
TK-10 = tested on: TK-10
ACHN = tested on: ACHN
HOP-92 = tested on: HOP-92
OVCAR-3 = tested on: OVCAR-3
T47D = tested on: T47D
M14 = tested on: M14
HL-60 = tested on: HL-60
SK-MEL-5 = tested on: SK-MEL-5
SK-MEL-28 = tested on: SK-MEL-28
MOLT-4 = tested on: MOLT-4
U-251 = tested on: U-251
MCF7 = tested on: MCF7
A549 = tested on: A549
OVCAR-5 = tested on: OVCAR-5
HOP-62 = tested on: HOP-62
SK-OV-3 = tested on: SK-OV-3
RXF 393 = tested on: RXF 393

For `Cc1ccc2c(c1)-c1c(C#N)c(N)nc(-c3ccccc3)c1CCS2(=O)=O`, which GI50 (UACC-257) is on record?
The GI50 was 6.31 µM (inactive).

What about the GI50 (HCT-15) of the same compound?
The GI50 was 4.54 µM.

And the GI50 (PC-3)?
Its GI50 is 13.4 µM (inactive).

And the GI50 (UO-31)?
Its GI50 is 13.4 µM (inactive).

What about the GI50 (SN12C) of the same compound?
The GI50 was 17.7 µM (inactive).

What about the GI50 (LOX IMVI) of the same compound?
Its GI50 is 12.6 µM (inactive).

What about the GI50 (Malme-3M) of the same compound?
The GI50 was 2.45 µM (inactive).

What about the GI50 (Hs-578T) of the same compound?
Its GI50 is 5.98 µM (inactive).

And the GI50 (RPMI-8226)?
Its GI50 is 4.56 µM (inactive).

What about the GI50 (IGROV-1) of the same compound?
Its GI50 is 5.31 µM (inactive).

And the GI50 (NCI/ADR-RES)?
The GI50 was 5.26 µM (inactive).

And the GI50 (OVCAR-4)?
Its GI50 is 52 µM (inactive).

And the GI50 (SR)?
The GI50 was 0.834 µM (active).

And the GI50 (SF-295)?
The GI50 was 5.47 µM (inactive).

What about the GI50 (DU-145) of the same compound?
The GI50 was 6.19 µM (inactive).

What about the GI50 (SF-539) of the same compound?
The GI50 was 6.35 µM (inactive).

What about the GI50 (COLO 205) of the same compound?
The GI50 was 6.03 µM (inactive).

What about the GI50 (CCRF-CEM) of the same compound?
Its GI50 is 1.23 µM (inactive).

And the GI50 (SK-MEL-2)?
Its GI50 is > 29.2 µM (inactive).

And the GI50 (SNB-75)?
The GI50 was 3.72 µM (inactive).

And the GI50 (SNB-19)?
Its GI50 is 4.16 µM (inactive).

What about the GI50 (MDA-MB-231) of the same compound?
Its GI50 is 17.5 µM (inactive).

What about the GI50 (A498) of the same compound?
The GI50 was 8.71 µM (inactive).

And the GI50 (SW-620)?
Its GI50 is 5.6 µM (inactive).

And the GI50 (HCT-116)?
The GI50 was 6.38 µM (inactive).

And the GI50 (NCI-H23)?
The GI50 was 8.65 µM (inactive).

And the GI50 (HT-29)?
Its GI50 is 3.78 µM (inactive).

And the GI50 (MDA-MB-435)?
Its GI50 is 1.72 µM (inactive).

What about the GI50 (SF-268) of the same compound?
The GI50 was 22.9 µM (inactive).

And the GI50 (OVCAR-8)?
The GI50 was 11.7 µM (inactive).

And the GI50 (NCI-H522)?
Its GI50 is 1.12 µM (inactive).

What about the GI50 (BT-549) of the same compound?
The GI50 was 12.1 µM (inactive).

What about the GI50 (CAKI-1) of the same compound?
Its GI50 is 10.5 µM (inactive).

And the GI50 (NCI-H226)?
Its GI50 is 5.36 µM (inactive).

What about the GI50 (EKVX) of the same compound?
The GI50 was 18.7 µM (inactive).

And the GI50 (HCC 2998)?
The GI50 was 8.13 µM (inactive).

And the GI50 (KM12)?
The GI50 was 4.85 µM (inactive).

And the GI50 (786-0)?
The GI50 was 6.38 µM (inactive).

What about the GI50 (NCI-H460) of the same compound?
The GI50 was 4.17 µM (inactive).

And the GI50 (UACC-62)?
The GI50 was 3.84 µM (inactive).

And the GI50 (K562)?
Its GI50 is 1.97 µM (inactive).

What about the GI50 (TK-10) of the same compound?
Its GI50 is > 100 µM (inactive).

And the GI50 (ACHN)?
The GI50 was 8.53 µM (inactive).

And the GI50 (HOP-92)?
Its GI50 is 56.5 µM (inactive).

And the GI50 (OVCAR-3)?
Its GI50 is 5.47 µM (inactive).

What about the GI50 (T47D) of the same compound?
Its GI50 is 15.1 µM (inactive).

And the GI50 (M14)?
The GI50 was 4.54 µM (inactive).

And the GI50 (HL-60)?
Its GI50 is 0.204 µM (active).

And the GI50 (SK-MEL-5)?
The GI50 was 3.03 µM (inactive).

And the GI50 (SK-MEL-28)?
The GI50 was 11.8 µM (inactive).

And the GI50 (MOLT-4)?
The GI50 was 7.53 µM (inactive).

What about the GI50 (U-251) of the same compound?
Its GI50 is 8.22 µM (inactive).

And the GI50 (MCF7)?
Its GI50 is 4.48 µM (inactive).

What about the GI50 (A549) of the same compound?
Its GI50 is 11 µM (inactive).

And the GI50 (OVCAR-5)?
The GI50 was 10.1 µM (inactive).

What about the GI50 (HOP-62) of the same compound?
The GI50 was 6.95 µM (inactive).

And the GI50 (SK-OV-3)?
The GI50 was 5.53 µM (inactive).

Which GI50 (UACC-257) does the source give for `CCOC(=O)C1=C(C)N(Cc2ccccc2)C2(O)C(OC)CC(=O)C3C(=O)N(c4ccccc4)C(=O)C132` (stereo not drawn) here?
Its GI50 is 15.5 µM (inactive).

And the GI50 (HCT-15)?
Its GI50 is 5.75 µM.

And the GI50 (PC-3)?
The GI50 was 7.73 µM (inactive).

What about the GI50 (UO-31) of the same compound?
The GI50 was 13.3 µM (inactive).

What about the GI50 (SN12C) of the same compound?
Its GI50 is 10.6 µM (inactive).

And the GI50 (LOX IMVI)?
The GI50 was 3.39 µM (inactive).

And the GI50 (Malme-3M)?
The GI50 was 14.5 µM (inactive).

And the GI50 (Hs-578T)?
The GI50 was 83.4 µM (inactive).

What about the GI50 (RPMI-8226) of the same compound?
Its GI50 is 2.69 µM (inactive).

And the GI50 (IGROV-1)?
Its GI50 is 15.7 µM (inactive).

What about the GI50 (NCI/ADR-RES) of the same compound?
The GI50 was 13.8 µM (inactive).

And the GI50 (OVCAR-4)?
The GI50 was 4.84 µM (inactive).

What about the GI50 (SR) of the same compound?
Its GI50 is 3.55 µM (inactive).

What about the GI50 (SF-295) of the same compound?
The GI50 was 15.2 µM (inactive).

And the GI50 (DU-145)?
Its GI50 is 3.9 µM (inactive).

And the GI50 (SF-539)?
The GI50 was 15 µM (inactive).

And the GI50 (COLO 205)?
The GI50 was 7.21 µM (inactive).

And the GI50 (CCRF-CEM)?
Its GI50 is 3.91 µM (inactive).

And the GI50 (SK-MEL-2)?
The GI50 was 7.57 µM (inactive).

What about the GI50 (SNB-19) of the same compound?
The GI50 was 16.3 µM (inactive).

And the GI50 (MDA-MB-231)?
Its GI50 is 13.5 µM (inactive).

What about the GI50 (A498) of the same compound?
The GI50 was 21.5 µM (inactive).

And the GI50 (SW-620)?
Its GI50 is 4.93 µM (inactive).

And the GI50 (HCT-116)?
Its GI50 is 6.3 µM (inactive).

And the GI50 (NCI-H23)?
Its GI50 is 15.8 µM (inactive).

And the GI50 (HT-29)?
Its GI50 is 4.9 µM (inactive).

What about the GI50 (MDA-MB-435) of the same compound?
The GI50 was 5.05 µM (inactive).

And the GI50 (SF-268)?
The GI50 was 9.33 µM (inactive).

And the GI50 (OVCAR-8)?
The GI50 was 5.53 µM (inactive).

And the GI50 (NCI-H522)?
The GI50 was 5.98 µM (inactive).

And the GI50 (BT-549)?
Its GI50 is 4.97 µM (inactive).

What about the GI50 (CAKI-1) of the same compound?
The GI50 was 17 µM (inactive).

What about the GI50 (NCI-H226) of the same compound?
The GI50 was 15.1 µM (inactive).

What about the GI50 (EKVX) of the same compound?
Its GI50 is 23.7 µM (inactive).

And the GI50 (HCC 2998)?
The GI50 was 12.4 µM (inactive).

And the GI50 (KM12)?
Its GI50 is 8.75 µM (inactive).

What about the GI50 (786-0) of the same compound?
Its GI50 is 8.07 µM (inactive).

What about the GI50 (NCI-H460) of the same compound?
The GI50 was 6.98 µM (inactive).

What about the GI50 (UACC-62) of the same compound?
The GI50 was 5.66 µM (inactive).

And the GI50 (RXF 393)?
The GI50 was 5.69 µM (inactive).

What about the GI50 (K562) of the same compound?
Its GI50 is 4.43 µM (inactive).

And the GI50 (TK-10)?
The GI50 was 22.4 µM (inactive).

What about the GI50 (ACHN) of the same compound?
The GI50 was 10.4 µM (inactive).

And the GI50 (HOP-92)?
Its GI50 is 14.2 µM (inactive).

And the GI50 (OVCAR-3)?
The GI50 was 7.41 µM (inactive).

What about the GI50 (T47D) of the same compound?
Its GI50 is 4.28 µM (inactive).

What about the GI50 (M14) of the same compound?
Its GI50 is 19.9 µM (inactive).

And the GI50 (HL-60)?
The GI50 was 3.93 µM (inactive).

And the GI50 (SK-MEL-5)?
The GI50 was 10.3 µM (inactive).

What about the GI50 (SK-MEL-28) of the same compound?
The GI50 was 7.33 µM (inactive).

What about the GI50 (MOLT-4) of the same compound?
Its GI50 is 7.45 µM (inactive).

And the GI50 (U-251)?
The GI50 was 6.53 µM (inactive).

And the GI50 (MCF7)?
The GI50 was 3.61 µM (inactive).

And the GI50 (A549)?
The GI50 was 7.74 µM (inactive).

What about the GI50 (OVCAR-5) of the same compound?
Its GI50 is 13.8 µM (inactive).

What about the GI50 (HOP-62) of the same compound?
The GI50 was 6.81 µM (inactive).
